Measured values as given in US8945652B2, “High-potency sweetener for weight management and compositions sweetened therewith” (The Coca-Cola Company, priority 2005, dated 2015).

Assay: Sensory evaluation of sweetness linger and taste by expert panel
Parameters: key: 0=no sweetness linger; 1=very slight sweetness linger; 2 slight sweetness linger; 3=moderate sweetness linger; 4=moderately high sweetness linger; 5=high sweetness linger
Details: scale 0-5
Description: In a particular embodiment, a panel of assessors is used to measure the reduction of sweetness linger. Briefly described, a panel of assessors (generally 8 to 12 individuals) is trained to evaluate sweetness perception and measure sweetness at several time points from when the sample is initially taken into the mouth until 3 minutes after it has been expectorated. […] A decrease in score for a time point measured after the sample has cleared the mouth indicates there has been a reduction in sweetness perception.
The panel of assessors may be trained using procedures well known to those of ordinary skill in the art. In a particular embodiment, the panel of assessors may be trained using the Spectrum™ Descriptive Analysis Method (Meilgaard et al, Sensory Evaluation Techniques, 3rd edition, Chapter 11). Desirably, the focus of training should be the recognition of and the measure of the basic tastes; specifically, sweet. In order to ensure accuracy and reproducibility of results, each assessor should repeat the measure of the reduction of sweetness linger about three to about five times per sample, taking at least a five minute break between each repetition and/or sample and rinsing well with water to clear the mouth.
Generally, the method of measuring sweetness comprises taking a 10 mL sample into the mouth, holding the sample in the mouth for 5 seconds and gently swirling the sample in the mouth, rating the sweetness intensity perceived at 5 seconds, expectorating the sample (without swallowing following expectorating the sample), rinsing with one mouthful of water (e.g., vigorously moving water in mouth as if with mouth wash) and expectorating the rinse water, rating the sweetness intensity perceived immediately upon expectorating the rinse water, waiting 45 seconds and, while waiting those 45 seconds, identifying the time of maximum perceived sweetness intensity and rating the sweetness intensity at that time (moving the mouth normally and swallowing as needed), rating the sweetness intensity after another 10 seconds, rating the sweetness intensity after another 60 seconds (cumulative 120 seconds after rinse), and rating the sweetness intensity after still another 60 seconds (cumulative 180 seconds after rinse). Between samples take a 5 minute break, rinsing well with water to clear the mouth.
Sensory evaluation of the samples prepared in Example Set G was carried out under the following protocol, similar to that described hereinabove. In this test protocol, none of the samples were swallowed. […] Immediately upon sensing maximal sweetness, the sample was expectorated, the mouth was rinsed with water and the rate of sweetness decay (“Sweetness Linger”) was measured, where attention was focused on the sweetness 3-4 min after the water rinse. […]

[1] = Example Set G, citric acid/potassium citrate composition equivalent to diet lemon-lime beverage, sweetness 3-4 min after water rinse
[2] = Example Set H, carbon-treated water with phosphoric acid (75%), pH 2.4-2.5

OC[C@H]1O[C@@](CO)(O[C@H]2O[C@H](CO)[C@@H](O)[C@H](O)[C@H]2O)[C@@H](O)[C@@H]1O [sugar, sucrose]
Sweetness linger [1]: 0 | Sweetness linger [2]: 0

rebaudioside A
Sweetness linger [1]: 5 | Sweetness linger [2]: 5
